Laboratory results taken from PubChem BioAssay AID330 (DTP/NCI, 2004).
Several values for one entry are separate records, joined by “and”; a condition that tells them apart may be missing. Identical values can stand only once. Toxic doses and inconclusive results are not listed. The calls were made as follows: active = survival T/C of 150% or more; inactive = T/C below 125% in these data.

System: P388 leukemia ip, CD2F1 mice, survival T/C
Assay: NCI In Vivo Anticancer Drug Screen. Data for tumor model P388 Leukemia (intraperitoneal) in CD2F1 (CDF1) mice
Conditions: endpoint: median survival time, higher = longer survival
How it was run: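 Mice carrying the transplanted tumor received test compound or vehicle. Survival was recorded in each group, and the value is the treated-group measurement divided by that of the vehicle-treated control group.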

[1] = dose: 100.0 mg/kg/injection, schedule: Q04DX002 (ip), vehicle: saline with Tween-80
[2] = dose: 200.0 mg/kg/injection, schedule: Q04DX002 (ip), vehicle: saline with Tween-80
[3] = dose: 400.0 mg/kg/injection, schedule: Q04DX002 (ip), vehicle: saline with Tween-80
[4] = dose: 100.0 mg/kg/injection, schedule: Q04DX003 (ip), vehicle: saline with Tween-80
[5] = dose: 200.0 mg/kg/injection, schedule: Q04DX003 (ip), vehicle: saline with Tween-80
[6] = dose: 400.0 mg/kg/injection, schedule: Q04DX003 (ip), vehicle: saline with Tween-80
[7] = dose: 60.0 mg/kg/injection, schedule: Q01DX005 (ip), vehicle: saline
[8] = dose: 120.0 mg/kg/injection, schedule: Q01DX005 (ip), vehicle: saline
[9] = dose: 50.0 mg/kg/injection, schedule: Q01DX005 (ip), vehicle: saline with Tween-80
[10] = dose: 100.0 mg/kg/injection, schedule: Q01DX005 (ip), vehicle: saline with Tween-80
[11] = dose: 50.0 mg/kg/injection, schedule: Q01DX009 (ip), vehicle: saline with Tween-80
[12] = dose: 100.0 mg/kg/injection, schedule: Q01DX009 (ip), vehicle: saline with Tween-80
[13] = dose: 200.0 mg/kg/injection, schedule: Q01DX009 (ip), vehicle: saline with Tween-80
[14] = dose: 60.0 mg/kg/injection, schedule: Q01DX005 (ip), vehicle: saline with Tween-80
[15] = dose: 120.0 mg/kg/injection, schedule: Q01DX005 (ip), vehicle: saline with Tween-80
[16] = dose: 240.0 mg/kg/injection, schedule: Q01DX005 (ip), vehicle: saline with Tween-80

Measured: T/C

CCOC(=O)N1CCc2cc(OC)c(O)cc2C1CC1=CC(=O)C(OC)=CC1=O (stereo not drawn)
inactive: [1] 102 % of control | [2] 100 % of control | [3] 97 % of control

O=C(O)c1cc(I)cc(I)c1
inactive: dose: 37.5 mg/kg/injection, schedule: Q01DX009 (ip), vehicle: saline with Tween-80 99 % of control | dose: 75.0 mg/kg/injection, schedule: Q01DX009 (ip), vehicle: saline with Tween-80 104 % of control | [4] 98 % of control | dose: 150.0 mg/kg/injection, schedule: Q01DX009 (ip), vehicle: saline with Tween-80 95 % of control | [5] 96 % of control | [6] 96 % of control

Cc1sc2ccc3ccccc3c2[n+]1C
inactive: dose: 15.0 mg/kg/injection, schedule: Q01DX005 (ip), vehicle: saline 100 % of control and 106 % of control and 95 % of control | dose: 30.0 mg/kg/injection, schedule: Q01DX005 (ip), vehicle: saline 104 % of control and 108 % of control and 118 % of control | [7] 116 % of control | [8] 91 % of control and 114 % of control

ClCCN(CCCl)CC(Cl)COc1cccc2ccccc12 (stereo not drawn)
inactive: dose: 0.62 mg/kg/injection, schedule: Q01DX009 (ip), vehicle: saline 106 % of control and 108 % of control | dose: 1.25 mg/kg/injection, schedule: Q01DX009 (ip), vehicle: saline 100 % of control and 108 % of control | dose: 2.5 mg/kg/injection, schedule: Q01DX009 (ip), vehicle: saline 86 % of control and 97 % of control

CSc1nc(Cl)cc(=O)n1C
inactive: dose: 6.25 mg/kg/injection, schedule: Q01DX005 (ip), vehicle: Klucel (hydroxypropylcellulose) (HPC) 104 % of control | dose: 12.5 mg/kg/injection, schedule: Q01DX005 (ip), vehicle: Klucel (hydroxypropylcellulose) (HPC) 105 % of control | dose: 25.0 mg/kg/injection, schedule: Q01DX005 (ip), vehicle: Klucel (hydroxypropylcellulose) (HPC) 100 % of control and 92 % of control

Cn1c2ccccc2c2nnc(N/N=C/c3cccs3)nc21
inactive: [3] 105 % of control and 91 % of control

S=C1CC2CCCC(C2)N1 (stereo not drawn)
inactive: dose: 1.87 mg/kg/injection, schedule: Q01DX005 (ip), vehicle: Klucel (hydroxypropylcellulose) (HPC) 95 % of control | dose: 3.75 mg/kg/injection, schedule: Q01DX005 (ip), vehicle: Klucel (hydroxypropylcellulose) (HPC) 100 % of control | dose: 7.5 mg/kg/injection, schedule: Q01DX005 (ip), vehicle: Klucel (hydroxypropylcellulose) (HPC) 101 % of control and 94 % of control

CCOC(=O)Nc1ccc2nc(-c3cscn3)[nH]c2c1
inactive: dose: 50.0 mg/kg/injection, schedule: Q01DX009 (ip), vehicle: saline 101 % of control | dose: 100.0 mg/kg/injection, schedule: Q01DX009 (ip), vehicle: saline 112 % of control | dose: 200.0 mg/kg/injection, schedule: Q01DX009 (ip), vehicle: saline 115 % of control

Cc1ccccc1-c1cc2ccccc2c(N)n1
inactive: dose: 6.25 mg/kg/injection, schedule: Q01DX009 (ip), vehicle: saline with Tween-80 118 % of control | dose: 12.5 mg/kg/injection, schedule: Q01DX009 (ip), vehicle: saline with Tween-80 99 % of control

CC(C)CCCC(C)C1CCC2C3CCC4CC5(C)C(CC4(C)C3CCC12C)C(=O)C5(Cl)Cl (stereo not drawn)
inactive: [9] 96 % of control | [10] 100 % of control | dose: 200.0 mg/kg/injection, schedule: Q01DX005 (ip), vehicle: saline with Tween-80 99 % of control

CCOC=C1C(=O)N(C)C(=O)N(C)C1=O
inactive: [11] 106 % of control | [12] 106 % of control | [13] 108 % of control

CCCCCCCCCCCCC(=O)N1CCOCC1
inactive: [4] 100 % of control | [5] 95 % of control | [6] 110 % of control

NC(=O)NC1CC1c1ccc(Cl)c(Cl)c1 (stereo not drawn)
inactive: dose: 50.0 mg/kg/injection, schedule: Q01DX005 (ip), vehicle: Klucel (hydroxypropylcellulose) (HPC) 103 % of control | dose: 100.0 mg/kg/injection, schedule: Q01DX005 (ip), vehicle: Klucel (hydroxypropylcellulose) (HPC) 99 % of control | dose: 200.0 mg/kg/injection, schedule: Q01DX005 (ip), vehicle: Klucel (hydroxypropylcellulose) (HPC) 114 % of control

COC(=O)c1cc(-c2ccccc2)c2c(=O)n(-c3ccccc3)[nH]c2n1
inactive: [14] 99 % of control | [15] 100 % of control | [16] 96 % of control

Cc1nnc(Cc2ccc([N+](=O)[O-])cc2)c2n[nH]c(C)c12
inactive: dose: 25.0 mg/kg/injection, schedule: Q01DX001 (ip), vehicle: Klucel (hydroxypropylcellulose) (HPC) 104 % of control | dose: 50.0 mg/kg/injection, schedule: Q01DX001 (ip), vehicle: Klucel (hydroxypropylcellulose) (HPC) 102 % of control | dose: 100.0 mg/kg/injection, schedule: Q01DX001 (ip), vehicle: Klucel (hydroxypropylcellulose) (HPC) 109 % of control | dose: 100.0 mg/kg/injection, schedule: Q04DX002 (ip), vehicle: Klucel (hydroxypropylcellulose) (HPC) 90 % of control

N=C(N)SCCN1C(=O)NC(c2ccccc2)(c2ccccc2)C1=O
inactive: dose: 25.0 mg/kg/injection, schedule: Q04DX003 (ip), vehicle: Klucel (hydroxypropylcellulose) (HPC) 114 % of control | dose: 50.0 mg/kg/injection, schedule: Q04DX003 (ip), vehicle: Klucel (hydroxypropylcellulose) (HPC) 114 % of control | dose: 100.0 mg/kg/injection, schedule: Q04DX003 (ip), vehicle: Klucel (hydroxypropylcellulose) (HPC) 96 % of control | dose: 200.0 mg/kg/injection, schedule: Q04DX003 (ip), vehicle: Klucel (hydroxypropylcellulose) (HPC) 114 % of control

O=C1OC(C2=CC(=O)c3ccccc3C2=O)C(Cl)=C1Cl (stereo not drawn)
inactive: [9] 121 % of control | [10] 109 % of control

C/C(=N\NC(N)=O)C1=C(O)C(C(C)C)NC1=O (stereo not drawn)
inactive: [11] 93 % of control | [12] 99 % of control | [13] 92 % of control | dose: 400.0 mg/kg/injection, schedule: Q01DX009 (ip), vehicle: saline with Tween-80 99 % of control

Nc1ncnc2c1c(-c1ccccc1)cn2-c1ccc(Br)cc1
inactive: [14] 108 % of control | [15] 100 % of control | [16] 96 % of control

Cc1ccc(S(=O)(=O)Nc2ccccc2N(CCNCCOS(=O)(=O)c2ccc(C)cc2)S(=O)(=O)c2ccc(C)cc2)cc1
inactive: [1] 96 % of control | [2] 98 % of control | [3] 91 % of control

CC(=O)Cn1ccccc1=O
inactive: [7] 99 % of control | [8] 94 % of control | dose: 240.0 mg/kg/injection, schedule: Q01DX005 (ip), vehicle: saline 99 % of control

O=C(O)c1c[nH]c2ccc([N+](=O)[O-])cc2c1=O
inactive: dose: 0.63 mg/kg/injection, schedule: Q01DX009 (ip), vehicle: Klucel (hydroxypropylcellulose) (HPC) 110 % of control | dose: 1.25 mg/kg/injection, schedule: Q01DX009 (ip), vehicle: Klucel (hydroxypropylcellulose) (HPC) 94 % of control | dose: 2.5 mg/kg/injection, schedule: Q01DX009 (ip), vehicle: Klucel (hydroxypropylcellulose) (HPC) 101 % of control | dose: 5.0 mg/kg/injection, schedule: Q01DX009 (ip), vehicle: Klucel (hydroxypropylcellulose) (HPC) 104 % of control | dose: 10.0 mg/kg/injection, schedule: Q01DX009 (ip), vehicle: Klucel (hydroxypropylcellulose) (HPC) 100 % of control | dose: 90.0 mg/kg/injection, schedule: Q01DX009 (ip), vehicle: Klucel (hydroxypropylcellulose) (HPC) 86 % of control

CC1(C)SC(C(NC(=O)COc2ccccc2)C(=O)O)NC1C(=O)O (stereo not drawn)
inactive: dose: 50.0 mg/kg/injection, schedule: Q04DX003 (ip), vehicle: saline with Tween-80 90 % of control | [4] 95 % of control | [5] 95 % of control

CNc1nc(Cl)cc2onc(C)c12
inactive: [14] 94 % of control | [15] 100 % of control | [16] 103 % of control
